Test results reported in patent US11311522B1 (Cavion, Inc., priority 2018, dated 2022).
“And” between values parts separate entries of the source, which are not always exact repeats. Equal values may be shown once.

Experiments:
hERG = molecular target: T1, hERG (Homo sapiens, UniProt Q12809); test: hERG whole-cell voltage-clamp (CHO-K1 cells); type: cell-based; conditions: hERG current
T1 construct: expressed in transfected cells; host or cells: CHO-K1

[1] = system: patients with essential tremor; test: T-CALM: TETRAS activities of daily living subscale; type: in vivo, human; conditions: for TETRAS-ADL Score, Median (minimum, maximum) / TETRAS-ADL Score, Mean (SD): post-hoc
Source text: The sum of the individual scores provides the overall score, ranging from 0 to 48. The complete TETRAS ADL Subscale is as follows.
Rate tremor's impact on activities of daily living (0-4 scoring). • 1. Speaking • 0=Normal • 1=Slight voice tremulousness, only when “nervous”. • 2=Mild voice tremor. All words easily understood. • 3=Moderate voice tremor. Some words difficult to understand. • 4=Severe voice tremor. Most words difficult to understand. • 2. Feeding with a spoon • 0=Normal • 1=Slightly abnormal. […] Spills a little. • 3=Moderately abnormal. Spills a lot or changes strategy to complete task such as using two hands or leaning over. • 4=Severely abnormal Cannot feed with a spoon. • 3. Drinking from a glass • 0=Normal. • 1=Slightly abnormal. […] Spills a little. • 3=Moderately abnormal. Spills a lot or changes strategy to complete task such as using two hands or leaning over. • 4=Severely abnormal. Cannot drink from a glass or uses straw or sippy cup. • 4. Hygiene • 0=Normal. • 1=Slightly abnormal. […] Some difficulty but can complete task. • 3=Moderately abnormal. Unable to do most fine tasks such as putting on lipstick or shaving unless changes strategy such as using two hands or using the less affected hand. • 4=Severely abnormal. Cannot complete hygiene activities independently. • 5. Dressing • 0=Normal. • 1=Slightly abnormal. […] Able to do everything but has difficulty due to tremor. • 3=Moderately abnormal. Unable to do most dressing unless uses strategy such as using Velcro, buttoning shirt before putting it on or avoiding shoes with laces. • 4=Severely abnormal. Cannot dress independently. • 6. Pouring • 0=Normal. • 1=Slightly abnormal. […] Must be very careful to avoid spilling but may spill occasionally. • 3=Moderately abnormal. Must use two hands or uses other strategies to avoid spilling. • 4=Severely abnormal. Cannot pour. • 7. Carrying food trays, plates or similar items • 0=Normal • 1=Slightly abnormal. […] Must be very careful to avoid spilling items on food tray. • 3=Moderately abnormal. Uses strategies such as holding tightly against body to carry. • 4=Severely abnormal. Cannot carry food trays or similar items. • 8. Using Keys • 0=Normal • 1=Slightly abnormal. Tremor is present but can insert key with one hand without difficulty. • 2=Mildly abnormal. Commonly misses target but still routinely puts key in lock with one hand. • 3=Moderately abnormal. Needs to use two hands or other strategies to put key in lock. • 4=Severely abnormal. Cannot put key in lock. • 9. Writing • 0=Normal • 1=Slightly abnormal. […] Difficulty writing due to the tremor • 3=Moderately abnormal. Cannot write without using strategies such as holding the writing hand with the other hand, holding pen differently or using large pen. • 4=Severely abnormal. Cannot write. • 10. Working. If patient is retired, ask as if they were still working. If the patient is a housewife, ask the question as it relates to housework: • 0=Normal. • 1=Slightly abnormal. […] Tremor interferes with work; able to do everything, but with errors. • 3=Moderately abnormal. Unable to continue working without using strategies such as changing jobs or using special equipment. • 4=Severely abnormal. Cannot perform any job or household work. • 11. Overall disability with the most affected task (Name task, e.g. using computer mouse, writing, etc) • Task • 0=Normal. • 1=Slightly abnormal. […] Tremor interferes with task but is still able to perform task. • 3=Moderately abnormal. Can do task but must use strategies. • 4=Severely abnormal. Cannot do the task. • 12.
Analyses of the TETRAS-ADL was conducted using the same type of ANCOVA model as described for the TETRAS-PS, using two-sided tests at the alpha=0.05 level of significance (FIG. 2 and Table 2).

[2] = system: patients with essential tremor; test: T-CALM: TETRAS performance subscale (TETRAS-PS); conditions: for TETRAS-PS Total Score change from baseline to Day 28, LS mean difference from placebo (95% CI) / TETRAS-PS Total Score change from baseline to Day 28, LS mean (SE) / TETRAS-PS Total Score change from baseline to Day 28, Median (minimum, maximum) / TETRAS-PS Total Score change from baseline to Day 28, Mean (SD): Independent Video Raters
[3] = Day 15, patients Minimally Improved by PGIC, N=17
[4] = Day 28, patients Minimally Improved by CGI-I, N=15
[5] = Day 28, patients Minimally Improved by PGIC, N=10
[6] = Day 28, independent video raters
[7] = subgroup Baseline TETRAS-PS Severity <=Median, N=22
[8] = subgroup Baseline TETRAS-PS Severity > Median, N=16
[9] = subgroup No Beta-blocker Use at Day 1, N=20

T1 sequence (Q12809 whole entry): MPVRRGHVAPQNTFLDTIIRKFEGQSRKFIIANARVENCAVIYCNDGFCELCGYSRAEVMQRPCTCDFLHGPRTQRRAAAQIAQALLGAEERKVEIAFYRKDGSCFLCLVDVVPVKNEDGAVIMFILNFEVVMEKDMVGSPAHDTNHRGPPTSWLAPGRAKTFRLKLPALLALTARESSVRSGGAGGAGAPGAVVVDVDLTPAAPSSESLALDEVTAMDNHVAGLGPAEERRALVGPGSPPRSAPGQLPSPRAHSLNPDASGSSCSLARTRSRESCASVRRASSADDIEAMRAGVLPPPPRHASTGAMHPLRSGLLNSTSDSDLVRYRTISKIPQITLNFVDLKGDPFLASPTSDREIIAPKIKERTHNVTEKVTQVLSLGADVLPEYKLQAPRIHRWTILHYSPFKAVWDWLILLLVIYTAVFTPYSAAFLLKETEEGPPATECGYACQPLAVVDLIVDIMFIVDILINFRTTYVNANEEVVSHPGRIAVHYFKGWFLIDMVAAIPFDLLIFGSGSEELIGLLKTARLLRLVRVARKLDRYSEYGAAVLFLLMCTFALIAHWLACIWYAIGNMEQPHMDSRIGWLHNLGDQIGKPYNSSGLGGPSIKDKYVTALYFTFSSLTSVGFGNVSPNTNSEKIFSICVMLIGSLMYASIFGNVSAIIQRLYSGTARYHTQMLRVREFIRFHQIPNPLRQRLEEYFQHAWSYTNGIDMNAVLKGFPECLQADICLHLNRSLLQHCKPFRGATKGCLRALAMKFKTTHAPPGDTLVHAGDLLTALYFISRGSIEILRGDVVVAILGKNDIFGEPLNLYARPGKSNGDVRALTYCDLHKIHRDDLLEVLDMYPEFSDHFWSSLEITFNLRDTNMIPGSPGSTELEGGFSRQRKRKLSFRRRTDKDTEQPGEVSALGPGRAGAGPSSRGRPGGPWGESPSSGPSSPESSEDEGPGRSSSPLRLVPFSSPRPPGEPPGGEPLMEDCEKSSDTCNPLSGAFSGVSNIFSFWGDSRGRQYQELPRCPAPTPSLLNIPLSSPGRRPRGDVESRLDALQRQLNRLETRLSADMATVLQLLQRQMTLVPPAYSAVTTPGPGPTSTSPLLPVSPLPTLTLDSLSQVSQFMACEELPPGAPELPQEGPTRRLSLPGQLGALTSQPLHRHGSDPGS

CC(C)c1ccc(CC(=O)N[C@H](C)c2ccc(OCC(F)(F)F)cn2)cc1 [CX-8998]
IC50 (hERG): 21 µM | IC20 (hERG; human, CHO-K1 cells expressing hERG): 4 µM | Change from baseline in TETRAS-ADL, LS mean ([1]; Day 15 (8 mg BID)): −4.5±0.87 and −4.5 | TETRAS-ADL Score, Median (minimum, maximum) ([1]; Day 15, patients Minimally Improved by CGI-I, N=19): −2.0 | TETRAS-ADL Score, Mean (SD) ([1]; Day 15, patients Minimally Improved by CGI-I, N=19, reduction from baseline): −3.7 (4.21) | TETRAS-ADL Score, Mean (SD) [1, 3]: −3.3 (4.27) | TETRAS-ADL Score, Median (minimum, maximum) [1, 3]: −4.0 | Change from baseline in TETRAS-ADL, LS mean ([1]; Day 28 (10 mg BID)): −4.5±1.12 and −4.5 | TETRAS-ADL Score, Mean (SD) [1, 4]: −4.4 (8.10) | TETRAS-ADL Score, Median (minimum, maximum) [1, 4]: −1.0 (−24, 3) | TETRAS-ADL Score, Mean (SD) [1, 5]: −1.6 (3.84) | TETRAS-ADL Score, Median (minimum, maximum) [1, 5]: −1.0 (−7, 3) | >5 to 10 point worsening ([1]; TETRAS-ADL, Day 15): 0 n (%) | >10 point worsening ([1]; TETRAS-ADL, Day 15): 0 n (%) | 0 change ([1]; TETRAS-ADL, Day 28): 5 (13.5%) n (%) | >0 to 1 point improvement ([1]; TETRAS-ADL, Day 28): 2 (5.4%) n (%) | >0 to 1 point worsening ([1]; TETRAS-ADL, Day 28): 3 (8.1%) n (%) | >1 to 2.5 point improvement ([1]; TETRAS-ADL, Day 28): 3 (8.1%) n (%) | >1 to 2.5 point worsening ([1]; TETRAS-ADL, Day 28): 3 (8.1%) n (%) | >2.5 to 5 point improvement ([1]; TETRAS-ADL, Day 28): 7 (18.9%) n (%) | >2.5 to 5 point worsening ([1]; TETRAS-ADL, Day 28): 3 (8.1%) n (%) | >5 to 10 point improvement ([1]; TETRAS-ADL, Day 28): 6 (16.2) n (%) | >5 to 10 point worsening ([1]; TETRAS-ADL, Day 28): 0 n (%) | >10 point improvement ([1]; TETRAS-ADL, Day 28): 5 (13.5%) n (%) | >10 point worsening ([1]; TETRAS-ADL, Day 28): 0 n (%) | Change from baseline in TETRAS-PS rated by physician, LS mean ([2]; Day 15 (8 mg BID)): −3.1 | Change from baseline in TETRAS-PS rated by physician, LS mean ([2]; Day 28 (10 mg BID)): −4.6 | TETRAS-PS LS mean difference from placebo (95% CI) [2, 6]: 0.5 (−1.5, 2.5) | TETRAS-PS total score, Mean (SD) [2, 6]: 21.1 (6.71) | TETRAS-PS total score, Median [2, 6]: 20.0 | TETRAS-PS LS mean difference from placebo (95% CI) ([2]; Day 28, investigator rated): −2.0 (−4.0, 0.0) | TETRAS-PS total score, Median ([2]; Day 28, investigator rated): 22.5 | TETRAS-PS Total Score change from baseline to Day 28, LS mean difference from placebo (95% CI) ([2]; subgroup Baseline TETRAS-PS Severity <=Median): 1.2 (−1.1, 3.4) | TETRAS-PS Total Score change from baseline to Day 28, LS mean (SE) [2, 7]: −0.6 (0.82) | TETRAS-PS Total Score change from baseline to Day 28, Median (minimum, maximum) [2, 7]: 0 (−9.5, 7.0) | TETRAS-PS Total Score change from baseline to Day 28, Mean (SD) ([2]; subgroup Baseline TETRAS-PS Severity <=Median, N=22, titrated up to 10 mg BID): −0.1 (3.98) | TETRAS-PS Total Score change from baseline to Day 28, LS mean difference from placebo (95% CI) ([2]; subgroup Baseline TETRAS-PS Severity > Median): −1.3 (−4.8, 2.3) | TETRAS-PS Total Score change from baseline to Day 28, LS mean (SE) [2, 8]: −3.5 (1.47) | TETRAS-PS Total Score change from baseline to Day 28, Mean (SD) [2, 8]: −3.6 (4.14) | TETRAS-PS Total Score change from baseline to Day 28, Median (minimum, maximum) [2, 8]: −3.0 (−11, 2.5) | TETRAS-PS Total Score change from baseline to Day 28, LS mean difference from placebo (95% CI) ([2]; subgroup No Beta-blocker Use at Day 1): −1.2 (−4.3, 1.8) | TETRAS-PS Total Score change from baseline to Day 28, LS mean (SE) [2, 9]: −1.3 (1.10) | TETRAS-PS Total Score change from baseline to Day 28, Mean (SD) [2, 9]: −1.6 (4.99)
